Laboratory results reported in ChEMBL document CHEMBL1833836, “Synthesis and evaluation of phosphoramidate and phosphorothioamidate analogues of amiprophos methyl as potential antimalarial agents” (Bioorg Med Chem Lett, 2011).
Activity calls are given as the source filed them. The calls are words filed in the database; no cut-off is given here.

Assays:
Plasmodium falciparum [1] = assay: Antimalarial activity against Plasmodium falciparum 3D7 infected in O-positive human erythrocytes assessed as inhibition of parasite lactate dehydrogenase after 72 hrs by pLDH method; assay type: functional, organism-based; conditions: 3D7, 72 h
Plasmodium falciparum [2] = assay: Ratio of compound IC50 to APM IC50 for Plasmodium falciparum 3D7; assay type: functional
Plasmodium falciparum [3] = assay: Antimicrobial activity against Plasmodium falciparum; assay type: functional, organism-based
Cryptosporidium parvum = assay: Antimicrobial activity against Cryptosporidium parvum infected in HCT8 cells assessed as parasite count after 72 to 120 hrs; assay type: functional, organism-based; conditions: HCT-8
Plasmodium falciparum [4] = assay: Antimicrobial activity against Plasmodium falciparum up to 128 uM; assay type: functional, organism-based

SMILES: CCOP(=O)(NC(C)C)Oc1ccc(C)cc1OC (stereo unspecified)
- IC50 (Plasmodium falciparum [1]): 128 µM
- Ratio IC50 (Plasmodium falciparum [2]): 20

SMILES: CCCNP(=O)(OCC)Oc1ccc(C)cc1[N+](=O)[O-] (stereo unspecified)
- IC50 (Plasmodium falciparum [1]): > 128 µM
- Ratio IC50 (Plasmodium falciparum [2]): 20

SMILES: CCOP(=O)(NC(C)C)Oc1cccc([N+](=O)[O-])c1C (stereo unspecified)
- IC50 (Plasmodium falciparum [1]): 128 µM
- Ratio IC50 (Plasmodium falciparum [2]): 20

SMILES: CCOP(=O)(NC1CCCC1)Oc1ccc(C(F)(F)F)cc1 (stereo unspecified)
- IC50 (Plasmodium falciparum [1]): 26 µM
- Ratio IC50 (Plasmodium falciparum [2]): 20

SMILES: CCOP(=O)(NC1CCC1)Oc1ccc(C(F)(F)F)cc1 (stereo unspecified)
- IC50 (Plasmodium falciparum [1]): 45 µM
- Ratio IC50 (Plasmodium falciparum [2]): 20

SMILES: CCOP(=O)(NC(C)C)Oc1ccc2ccccc2c1[N+](=O)[O-] (stereo unspecified)
- IC50 (Plasmodium falciparum [1]): 87 µM
- Ratio IC50 (Plasmodium falciparum [2]): 20

SMILES: CCOP(=O)(NC(C)C)Oc1cccc(C(F)(F)F)c1 (stereo unspecified)
- IC50 (Plasmodium falciparum [1]): 50 µM
- Ratio IC50 (Plasmodium falciparum [2]): 20

SMILES: CCOP(=O)(NC(C)C)Oc1ccc([N+](=O)[O-])cc1C (stereo unspecified)
- IC50 (Plasmodium falciparum [1]): 128 µM
- Ratio IC50 (Plasmodium falciparum [2]): 20

SMILES: CCCCNP(=O)(OCC)Oc1ccc(C(F)(F)F)cc1 (stereo unspecified)
- IC50 (Plasmodium falciparum [1]): 32 µM
- Ratio IC50 (Plasmodium falciparum [2]): 20

SMILES: CCOP(=O)(NC(C)C)Oc1ccc2ccccc2c1 (stereo unspecified)
- IC50 (Plasmodium falciparum [1]): 72 µM
- Ratio IC50 (Plasmodium falciparum [2]): 20

SMILES: CCOP(=O)(NCC(C)C)Oc1cc(C)ccc1[N+](=O)[O-] (stereo unspecified)
- IC50 (Plasmodium falciparum [1]): > 128 µM
- Ratio IC50 (Plasmodium falciparum [2]): 20

SMILES: CCOP(=O)(NC1CCCCC1)Oc1ccc(C(F)(F)F)cc1 (stereo unspecified)
- IC50 (Plasmodium falciparum [1]): 43 µM
- Ratio IC50 (Plasmodium falciparum [2]): 20

SMILES: CCOP(=O)(NCC(C)C)Oc1ccc(C)cc1[N+](=O)[O-] (stereo unspecified)
- IC50 (Plasmodium falciparum [1]): 75 µM
- Ratio IC50 (Plasmodium falciparum [2]): 20

SMILES: CCOP(=O)(Oc1ccc(C(F)(F)F)cc1)N1CCCC1 (stereo unspecified)
- IC50 (Plasmodium falciparum [1]): 56 µM
- Ratio IC50 (Plasmodium falciparum [2]): 20

SMILES: CCOP(=O)(NC(C)C)Oc1ccc(C(F)(F)F)cc1 (stereo unspecified)
- IC50 (Plasmodium falciparum [1]): 50 µM
- Ratio IC50 (Plasmodium falciparum [2]): 20

SMILES: CCCCNP(=O)(OCC)Oc1ccc(C)cc1[N+](=O)[O-] (stereo unspecified)
- IC50 (Plasmodium falciparum [1]): 28 µM
- Ratio IC50 (Plasmodium falciparum [2]): 20

SMILES: CCCCCNP(=S)(OCC)Oc1ccc([N+](=O)[O-])cc1C (stereo unspecified)
- IC50 (Plasmodium falciparum [1]): 6.9 µM

SMILES: CCOP(N)(=O)Oc1ccc(C(F)(F)F)cc1 (stereo unspecified)
- IC50 (Plasmodium falciparum [1]): 79 µM
- Ratio IC50 (Plasmodium falciparum [2]): 20

SMILES: O=[N+]([O-])c1cc([N+](=O)[O-])c(N2CCC(N3CCCC3)CC2)c(C(F)(F)F)c1
- IC50 (Plasmodium falciparum [3]): 0.44 µM

SMILES: CCOP(=O)(Oc1ccc(C(F)(F)F)cc1)N1CCOCC1 (stereo unspecified)
- IC50 (Plasmodium falciparum [1]): 98 µM
- Ratio IC50 (Plasmodium falciparum [2]): 20

SMILES: CCCN(CCC)c1c([N+](=O)[O-])cc(S(N)(=O)=O)cc1[N+](=O)[O-] [ORYZALIN]
- IC50 (Cryptosporidium parvum): 0.8 µM

SMILES: CCOP(=O)(Oc1ccc(C(F)(F)F)cc1)N(CC)CC (stereo unspecified)
- IC50 (Plasmodium falciparum [1]): 48 µM
- Ratio IC50 (Plasmodium falciparum [2]): 20

SMILES: CCOP(NC1CCCC1)Oc1ccc(Br)cc1 (stereo unspecified)
- IC50 (Plasmodium falciparum [1]): 128 µM

SMILES: CCOP(=S)(NC1CCCC1)Oc1ccc(C(F)(F)F)cc1 (stereo unspecified)
- IC50 (Plasmodium falciparum [1]): 8.6 µM
- Ratio IC50 (Plasmodium falciparum [2]): 20

SMILES: CCOP(=O)(NC1CCCC1)Oc1ccc(Br)cc1 (stereo unspecified)
- IC50 (Plasmodium falciparum [1]): 17 µM
- Ratio IC50 (Plasmodium falciparum [2]): 20

SMILES: CCOP(=O)(NC(C)C)Oc1ccc(C)cc1C#N (stereo unspecified)
- IC50 (Plasmodium falciparum [1]): 128 µM
- Ratio IC50 (Plasmodium falciparum [2]): 20

SMILES: CCOP(=S)(NC1CCCC1)Oc1ccc([N+](=O)[O-])cc1C (stereo unspecified)
- IC50 (Plasmodium falciparum [1]): 1.6 µM

SMILES: CCCCCNP(=O)(OCC)Oc1ccc(C)cc1[N+](=O)[O-] (stereo unspecified)
- IC50 (Plasmodium falciparum [1]): 51 µM
- Ratio IC50 (Plasmodium falciparum [2]): 20

SMILES: CCOP(=O)(NCC(C)C)Oc1ccc(C(F)(F)F)cc1 (racemic)
- IC50 (Plasmodium falciparum [1]): 40 µM
- Ratio IC50 (Plasmodium falciparum [2]): 20

SMILES: CCN(CC)CCN(CC)c1c([N+](=O)[O-])cc([N+](=O)[O-])cc1C(F)(F)F
- IC50 (Plasmodium falciparum [3]): 0.44 µM

SMILES: CCCN(CCC)c1c([N+](=O)[O-])cc(C(F)(F)F)cc1[N+](=O)[O-] [TRIFLURALIN]
- IC50 (Cryptosporidium parvum): 0.75 µM
- IC50 (Plasmodium falciparum [3]): 2.9 µM

SMILES: CCOP(=O)(NC(C)C)Oc1cc(C)ccc1[N+](=O)[O-] (stereo unspecified)
- IC50 (Plasmodium falciparum [1]): > 128 µM
- Ratio IC50 (Plasmodium falciparum [2]): 20

SMILES: CCOP(=O)(NC(C)C)Oc1ccc(C)cc1[N+](=O)[O-] (stereo unspecified)
- IC50 (Plasmodium falciparum [1]): 126 µM
- Ratio IC50 (Plasmodium falciparum [2]): 20

SMILES: CCOP(=O)(Nc1ccc(C)cc1Cl)Oc1ccc(C)cc1Cl (stereo unspecified)
- IC50 (Plasmodium falciparum [1]): 102 µM
- Ratio IC50 (Plasmodium falciparum [2]): 20

SMILES: CCOP(=O)(NC(C)C)Oc1ccccc1 (stereo unspecified)
- IC50 (Plasmodium falciparum [1]): > 128 µM
- Ratio IC50 (Plasmodium falciparum [2]): 20

SMILES: CCOP(=S)(NC1CCCC1)Oc1ccc(Br)cc1 (stereo unspecified)
- IC50 (Plasmodium falciparum [1]): 23 µM

SMILES: CCOP(=O)(Oc1ccc(C(F)(F)F)cc1)N1CCCCC1 (stereo unspecified)
- IC50 (Plasmodium falciparum [1]): 84 µM
- Ratio IC50 (Plasmodium falciparum [2]): 20

SMILES: CCOP(=O)(NC(C)C)Oc1cc([N+](=O)[O-])ccc1C (stereo unspecified)
- IC50 (Plasmodium falciparum [1]): 128 µM
- Ratio IC50 (Plasmodium falciparum [2]): 20

SMILES: CCCNP(=O)(OCC)Oc1cc(C)ccc1[N+](=O)[O-] (stereo unspecified)
- IC50 (Plasmodium falciparum [1]): 102 µM
- Ratio IC50 (Plasmodium falciparum [2]): 20

SMILES: CCOP(=O)(NC1CCCC1)Oc1ccc(C)cc1[N+](=O)[O-] (stereo unspecified)
- IC50 (Plasmodium falciparum [1]): 47 µM
- Ratio IC50 (Plasmodium falciparum [2]): 20

SMILES: CCOP(=O)(NC(C)C)Oc1ccc(C)cc1Br (stereo unspecified)
- IC50 (Plasmodium falciparum [1]): 39 µM
- Ratio IC50 (Plasmodium falciparum [2]): 20

SMILES: CCCCCCCNP(=O)(OCC)Oc1ccc(C(F)(F)F)cc1 (stereo unspecified)
- IC50 (Plasmodium falciparum [1]): 44 µM
- Ratio IC50 (Plasmodium falciparum [2]): 20

SMILES: CCOP(=O)(NC(C)C)Oc1ccc([N+](=O)[O-])c(C)c1 (stereo unspecified)
- IC50 (Plasmodium falciparum [1]): 79 µM
- Ratio IC50 (Plasmodium falciparum [2]): 20

SMILES: CCCCCNP(=S)(OCC)Oc1ccc(C(F)(F)F)cc1 (stereo unspecified)
- IC50 (Plasmodium falciparum [1]): 4.5 µM

SMILES: CC(C)OC(=O)Nc1cccc(Cl)c1
- inhibition (Plasmodium falciparum [4]): inactive

SMILES: COP(=S)(NC(C)C)Oc1ccc(C)cc1[N+](=O)[O-] (stereo unspecified) [AMIPROPHOS METHYL]
- IC50 (Plasmodium falciparum [1]): 4 µM

SMILES: CCOP(=O)(NC(C)C)Oc1ccc(C)cc1Cl (stereo unspecified)
- IC50 (Plasmodium falciparum [1]): 39 µM
- Ratio IC50 (Plasmodium falciparum [2]): 20

SMILES: CCOP(=O)(NC(C)C)Oc1ccccc1C(F)(F)F (stereo unspecified)
- IC50 (Plasmodium falciparum [1]): 87 µM
- Ratio IC50 (Plasmodium falciparum [2]): 20
